Experimental data from ChEMBL document CHEMBL5523715, “Inhibitory interactions of the 2,3-dihydro-6,7-dihydroxy-1H-isoindol-1-one scaffold with Bunyavirales cap-snatching endonucleases expose relevant drug design features” (Eur J Med Chem, 2024).
Calls of active or inactive are those of the source. No cut-off for these calls is given here.

Legend:
[1] = target: RNA-directed RNA polymerase L (Toscana virus) (UniProt P37800); conditions: dose 25.0 µM
[2] = tested on: Mammarenavirus choriomeningitidis; assay: Thermal stabilization of LCMV cap-ENDO assessed as increase in melting temperature at 25 uM in presence of MnCl2 by Sypro Orange dye based assay
[3] = target: RNA-directed RNA polymerase L (Andes orthohantavirus) (UniProt Q9E005); conditions: Orthohantavirus andesense; dose 25.0 µM
[4] = target: RNA-directed RNA polymerase L (Bunyavirus La Crosse) (UniProt A5HC98); conditions: La Crosse virus; dose 25.0 µM
Sequence of RNA-directed RNA polymerase L (Bunyavirus La Crosse) (A5HC98 whole entry): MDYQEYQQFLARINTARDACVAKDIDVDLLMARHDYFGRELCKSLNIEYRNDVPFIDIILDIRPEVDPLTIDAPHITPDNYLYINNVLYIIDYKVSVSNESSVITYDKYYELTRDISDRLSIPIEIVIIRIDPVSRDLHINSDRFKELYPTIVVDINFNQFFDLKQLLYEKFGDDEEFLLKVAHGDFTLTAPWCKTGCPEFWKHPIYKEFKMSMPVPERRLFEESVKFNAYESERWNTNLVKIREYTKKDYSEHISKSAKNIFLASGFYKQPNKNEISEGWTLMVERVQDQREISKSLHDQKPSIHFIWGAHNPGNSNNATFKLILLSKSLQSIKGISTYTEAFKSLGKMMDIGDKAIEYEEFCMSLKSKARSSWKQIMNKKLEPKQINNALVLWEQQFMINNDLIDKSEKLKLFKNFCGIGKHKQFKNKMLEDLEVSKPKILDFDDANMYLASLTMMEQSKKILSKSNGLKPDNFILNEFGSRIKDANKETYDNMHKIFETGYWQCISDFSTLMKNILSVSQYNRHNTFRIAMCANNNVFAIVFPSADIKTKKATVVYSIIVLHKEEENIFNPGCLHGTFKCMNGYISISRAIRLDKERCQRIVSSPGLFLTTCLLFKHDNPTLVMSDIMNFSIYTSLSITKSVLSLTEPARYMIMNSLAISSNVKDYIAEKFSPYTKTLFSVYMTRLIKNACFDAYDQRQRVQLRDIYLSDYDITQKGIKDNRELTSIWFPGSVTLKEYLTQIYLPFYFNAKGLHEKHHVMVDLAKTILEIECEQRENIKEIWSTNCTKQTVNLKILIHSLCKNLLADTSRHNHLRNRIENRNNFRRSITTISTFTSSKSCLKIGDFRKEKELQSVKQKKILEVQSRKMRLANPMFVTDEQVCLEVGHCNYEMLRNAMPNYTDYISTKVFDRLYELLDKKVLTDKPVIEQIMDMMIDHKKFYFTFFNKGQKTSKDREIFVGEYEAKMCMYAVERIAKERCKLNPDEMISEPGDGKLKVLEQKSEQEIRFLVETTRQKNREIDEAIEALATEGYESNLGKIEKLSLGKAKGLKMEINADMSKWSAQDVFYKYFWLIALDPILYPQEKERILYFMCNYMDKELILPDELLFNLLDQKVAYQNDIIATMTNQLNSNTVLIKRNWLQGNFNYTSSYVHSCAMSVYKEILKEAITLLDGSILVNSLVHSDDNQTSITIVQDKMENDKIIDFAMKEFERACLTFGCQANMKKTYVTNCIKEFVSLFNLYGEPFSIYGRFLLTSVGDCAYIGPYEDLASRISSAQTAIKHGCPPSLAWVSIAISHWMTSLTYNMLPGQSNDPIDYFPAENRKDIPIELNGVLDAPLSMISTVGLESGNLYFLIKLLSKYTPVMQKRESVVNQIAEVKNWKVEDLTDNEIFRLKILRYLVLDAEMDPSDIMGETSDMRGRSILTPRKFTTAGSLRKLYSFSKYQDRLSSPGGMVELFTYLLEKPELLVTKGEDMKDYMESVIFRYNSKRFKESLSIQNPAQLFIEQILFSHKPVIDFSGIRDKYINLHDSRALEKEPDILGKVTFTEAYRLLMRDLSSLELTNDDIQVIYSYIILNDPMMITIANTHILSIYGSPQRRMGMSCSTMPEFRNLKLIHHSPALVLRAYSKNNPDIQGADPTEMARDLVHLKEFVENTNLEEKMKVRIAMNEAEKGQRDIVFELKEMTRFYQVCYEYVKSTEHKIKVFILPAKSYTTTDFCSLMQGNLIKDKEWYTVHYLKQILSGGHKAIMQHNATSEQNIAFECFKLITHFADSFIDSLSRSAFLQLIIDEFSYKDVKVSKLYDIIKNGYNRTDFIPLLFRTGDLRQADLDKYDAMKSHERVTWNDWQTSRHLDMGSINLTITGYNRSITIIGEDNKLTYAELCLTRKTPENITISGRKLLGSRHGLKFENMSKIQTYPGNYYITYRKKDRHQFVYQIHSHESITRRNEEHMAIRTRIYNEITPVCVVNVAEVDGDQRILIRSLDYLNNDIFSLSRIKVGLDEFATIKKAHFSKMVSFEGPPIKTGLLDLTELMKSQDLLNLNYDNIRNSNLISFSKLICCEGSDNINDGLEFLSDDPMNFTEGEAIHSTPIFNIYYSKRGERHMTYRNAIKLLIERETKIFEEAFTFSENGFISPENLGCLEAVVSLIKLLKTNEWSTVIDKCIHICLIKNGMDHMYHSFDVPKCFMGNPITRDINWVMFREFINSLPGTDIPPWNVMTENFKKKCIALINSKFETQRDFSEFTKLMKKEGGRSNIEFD

[5] = target: RNA-directed RNA polymerase L (Andes orthohantavirus, UniProt Q9E005); set-up: species or system Orthohantavirus andesense
[6] = target: T1, RNA-directed RNA polymerase L (Toscana virus, UniProt P37800)
Pichinde virus = assay: Thermal stabilization of PICV cap-ENDO assessed as increase in melting temperature at 25 uM in presence of MnCl2 by Sypro Orange dye based assay
[7] = target: RNA-directed RNA polymerase L (Bunyavirus La Crosse, UniProt A5HC98); set-up: species or system La Crosse virus
Sequence of RNA-directed RNA polymerase L (Bunyavirus La Crosse, UniProt A5HC98) (A5HC98 whole entry): as above

Mammarenavirus lassaense = assay: Thermal stabilization of LASV cap-ENDO assessed as increase in melting temperature at 25 uM in presence of MnCl2 by Sypro Orange dye based assay
[8] = target: RNA-directed RNA polymerase L (Toscana virus) (UniProt P37800)
[9] = target: T1, RNA-directed RNA polymerase L; remark: listed apart in the source
[10] = target: RNA-directed RNA polymerase L (Toscana virus) (UniProt P37800); remark: listed apart in the source
[11] = target: RNA-directed RNA polymerase L (Toscana virus) (UniProt P37800); remark: listed apart in the source
[12] = Metal chelating activity assessed as compound-Mn(II) complex formation by measuring apparent formation constant (K) by UV-Vis spectrophotometric analysis; format: functional
[13] = Metal chelating activity assessed as compound-Mg(II) complex formation by measuring apparent formation constant (K) by UV-Vis spectrophotometric analysis; format: functional

Structure (SMILES) | Activity [1] | Activity [2] | Activity [3] | Activity [4] | IC50 [5] | IC50 [6] | Activity (Pichinde virus) | IC50 [7] | Activity (Mammarenavirus lassaense) | also measured
O=C1c2c(ccc(O)c2O)CN1Cc1ccc([N+](=O)[O-])cc1 | Active | Active | Active | Active | 3.7 µM | 4.7 µM | Active | 8 µM | Active | 
O=C1c2c(ccc(O)c2O)CN1Cc1ccc2ccccc2c1 | Active | Active | Active | Active | 1.9 µM | 5.8 µM | Active | 3.9 µM | Active | 
O=C1c2c(ccc(O)c2O)CN1CCc1ccc(O)cc1 | Active | Active | Active | Active | 1 µM | 2.8 µM | Active | 6.1 µM | Active | 
O=C1c2c(ccc(O)c2O)CN1Cc1ccc(F)c(Cl)c1 | inactive | inactive | inactive | inactive | 7.6 µM | 13.4 µM | inactive | 4.8 µM | inactive | 
O=C1c2c(ccc(O)c2O)CN1Cc1cc(O)c(O)c(O)c1 | Active | Active | Active | Active | 1.5 µM | 0.9 µM | Active | 1.1 µM | Active | 
O=C1c2c(ccc(O)c2O)CN1Cc1ccc(F)cc1 | Active | Active | Active | Active | 1.7 µM | 5.7 µM | Active | 4 µM | Active | 
O=C1c2c(ccc(O)c2O)CN1Cc1ccc(Cl)c(C(F)(F)F)c1 | Active | Active | Active | Active | 1.3 µM | 7.3 µM | Active | 29.2 µM | Active | 
O=C1c2c(ccc(O)c2O)CN1Cc1ccc(O)c(O)c1 |  |  |  |  | 0.5 µM | 2.4 µM |  | 4 µM |  | ΔTm [1]: > 1 °C; -TdeltaS [8]: 1.76 kcal/mol; ΔTm [2]: < 1 °C; ΔTm [3]: > 1 °C; ΔTm [4]: > 1 °C; Kd [9]: 28 µM; deltaG [10]: -6.22 kcal/mol; deltaH [11]: -7.97 kcal/mol; ΔTm (Pichinde virus): < 1 °C; ΔTm (Mammarenavirus lassaense): < 1 °C
Cc1ccc(CN2Cc3ccc(O)c(O)c3C2=O)cc1 | Active | Active | Active | Active | 6.4 µM | 1.5 µM | Active | 3.4 µM | Active | 
O=C1c2c(ccc(O)c2O)CN1Cc1cccc2ccccc12 | Active | Active | Active | Active | 3.8 µM | 7.8 µM | Active | 11.2 µM | Active | 
O=C1c2c(ccc(O)c2O)CN1Cc1ccccc1 | inactive | inactive | inactive | inactive | 1.1 µM | 3.3 µM | inactive | 9 µM | inactive | 
O=C1c2c(ccc(O)c2O)CN1Cc1ccc(O)cc1 | Active | Active | Active | Active | 1.6 µM | 3.6 µM | Active | 0.7 µM | Active | log(activity) [12]: 3.37; log(activity) [13]: 2.31
